From BigSolDB 2.1

Nc1cccnn1
Settings | solubility (mole fraction)
in acetone, 288.25 K | 0.0068
in acetone, 293.15 K | 0.00801
in acetone, 298.35 K | 0.00907
in acetone, 303.05 K | 0.0102
in acetone, 308.35 K | 0.012
in acetone, 313.25 K | 0.0133
in acetone, 317.85 K | 0.0148
in acetone, 323.35 K | 0.0169
in acetone, 328.05 K | 0.0187
in aniline, 288.05 K | 0.0231
in aniline, 293.25 K | 0.0289
in aniline, 298.35 K | 0.0347
in aniline, 302.95 K | 0.0419
in aniline, 308.45 K | 0.0487
in aniline, 313.15 K | 0.0559
in aniline, 318.15 K | 0.0623
in aniline, 323.45 K | 0.0693
in aniline, 328.15 K | 0.076
in aniline, 333.35 K | 0.0825
in ethanol, 288.35 K | 0.0193
in ethanol, 294.05 K | 0.0213
in ethanol, 298.75 K | 0.0237
in ethanol, 303.15 K | 0.0266
in ethanol, 308.25 K | 0.0306
in ethanol, 313.35 K | 0.0349
in ethanol, 318.35 K | 0.0409
in ethanol, 323.35 K | 0.0492
in ethanol, 328.35 K | 0.0602
in ethanol, 333.15 K | 0.0713
in ethyl acetate, 288.45 K | 0.00228
in ethyl acetate, 293.15 K | 0.00275
in ethyl acetate, 298.65 K | 0.00324
in ethyl acetate, 302.75 K | 0.00383
in ethyl acetate, 307.15 K | 0.00434
in ethyl acetate, 312.95 K | 0.00522
in ethyl acetate, 318.65 K | 0.00588
in ethyl acetate, 322.65 K | 0.00665
in ethyl acetate, 328.25 K | 0.00738
in ethyl acetate, 332.35 K | 0.00813
in isopropanol, 288.15 K | 0.0122
in isopropanol, 298.15 K | 0.0172
in isopropanol, 303.55 K | 0.0203
in isopropanol, 308.45 K | 0.0233
in isopropanol, 312.85 K | 0.0277
in isopropanol, 317.75 K | 0.0315
in isopropanol, 323.25 K | 0.0373
in isopropanol, 328.05 K | 0.0412
in isopropanol, 332.95 K | 0.0465
in methanol, 288.15 K | 0.0356
in methanol, 293.05 K | 0.0398
in methanol, 298.15 K | 0.0455
in methanol, 303.25 K | 0.052
in methanol, 308.15 K | 0.0596
in methanol, 313.15 K | 0.0675
in methanol, 318.25 K | 0.076
in methanol, 323.55 K | 0.0865
in methanol, 328.15 K | 0.0981
in n-butanol, 289.35 K | 0.0105
in n-butanol, 293.35 K | 0.0126
in n-butanol, 298.05 K | 0.017
in n-butanol, 303.15 K | 0.0218
in n-butanol, 308.15 K | 0.0267
in n-butanol, 313.15 K | 0.0324
in n-butanol, 318.05 K | 0.0371
in n-butanol, 322.65 K | 0.042
in n-butanol, 327.95 K | 0.0469
in n-butanol, 332.95 K | 0.0519
in n-propanol, 288.45 K | 0.0161
in n-propanol, 293.05 K | 0.0185
in n-propanol, 298.35 K | 0.022
in n-propanol, 302.85 K | 0.0255
in n-propanol, 308.15 K | 0.0293
in n-propanol, 313.05 K | 0.0351
in n-propanol, 318.35 K | 0.0401
in n-propanol, 322.95 K | 0.0461
in n-propanol, 327.95 K | 0.0519
in n-propanol, 333.15 K | 0.0602
